From patent publication US9101638B2, “Boronic acid derivatives and therapeutic uses thereof” (Rempex Pharmaceuticals, Inc., priority 2013, dated 2015)

Legend:
ec302 (TEM-10) [1] = test: Potentiation of aztreonam, strain ec302; assay type: cell-based
OXA-48 = OXA-48 (Klebsiella pneumoniae, UniProt Q6XEC0); test: Inhibition of nitrocefin cleavage by purified OXA-48; assay type: biochemical; settings: nitrocefin reporter substrate, purified enzyme; read-out: Ki (OXA-48, NCF)
Procedure, shortened: (§1)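 Readout: nitrocefin hydrolysis, A490 recorded every 10 sec over 10 min. Enzyme and inhibitor (varied concentrations) preincubated 10 min, RT, in reaction buffer before substrate addition.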

P99 = P99 (Enterobacter cloacae, UniProt P05364); test: Inhibition of nitrocefin cleavage by purified P99; assay type: biochemical; settings: nitrocefin reporter substrate, purified enzyme; read-out: Ki (P99, NCF)
Sequence of P99 (P05364 21-381): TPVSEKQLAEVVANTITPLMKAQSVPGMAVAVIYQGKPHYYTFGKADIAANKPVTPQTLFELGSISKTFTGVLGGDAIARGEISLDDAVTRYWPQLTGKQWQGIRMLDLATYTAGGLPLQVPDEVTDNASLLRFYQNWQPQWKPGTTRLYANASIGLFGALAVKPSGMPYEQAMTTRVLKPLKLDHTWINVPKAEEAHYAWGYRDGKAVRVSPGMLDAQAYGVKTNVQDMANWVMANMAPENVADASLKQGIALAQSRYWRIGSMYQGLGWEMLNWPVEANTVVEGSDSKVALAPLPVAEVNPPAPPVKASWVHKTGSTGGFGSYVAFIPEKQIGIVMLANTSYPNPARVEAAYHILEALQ
Description: (§2) Purified enzymes were mixed with various concentrations of inhibitors in reaction buffer and incubated for 10 min at room temperature. Nitrocefin was added and substrate cleavage profiles were recorded at 490 nm every 10 sec for 10 min.

KPC-2 = KPC-2 (Klebsiella pneumoniae, UniProt Q9F663); test: Inhibition of nitrocefin cleavage by purified KPC-2; assay type: biochemical; settings: nitrocefin reporter substrate, purified enzyme; read-out: Ki (KPC-2, NCF)
Sequence of KPC-2 (Q9F663 25-293, looked up, species assumed): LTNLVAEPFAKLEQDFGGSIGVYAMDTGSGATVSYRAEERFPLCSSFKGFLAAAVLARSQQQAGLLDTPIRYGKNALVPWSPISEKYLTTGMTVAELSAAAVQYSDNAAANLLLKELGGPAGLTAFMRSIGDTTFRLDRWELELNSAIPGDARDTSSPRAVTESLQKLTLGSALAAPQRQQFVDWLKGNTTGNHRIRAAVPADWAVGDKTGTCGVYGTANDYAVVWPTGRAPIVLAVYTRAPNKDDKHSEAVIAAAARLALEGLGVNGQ
Procedure, shortened: as §1

KP1005 (CTX-M-14) = test: Potentiation of aztreonam, strain KP1005; assay type: cell-based
PAM1032/KPC-2 = test: Biapenem potentiation in PAM1032/KPC-2 (MexAB-OprM overexpressed); assay type: cell-based, Pseudomonas aeruginosa; settings: BLI potency to decrease biapenem MIC 64-fold, 32 to 0.5 μg/ml; efflux proficient strain
Description: (§3) Efflux of BLIs from Pseudomonas aeruginosa by the MexAB-OprM efflux pump was also evaluated. […] Due to expression of KPC-2 both strains became resistant to biapenem. […] Potency of BLIs to potentiate biapenem in these strains was determined. […] The ratio of MPC64 values for each BLI in PAM1032/KPC-2 (efflux proficient) and PAM1154/KPC-2 (efflux deficient) was determined to generate the Efflux Index (EI).

KP1009 (CTX-M-15) = test: Potentiation of aztreonam, strain KP1009; assay type: cell-based
Neutrophil elastase = target: T1, Neutrophil elastase (Homo sapiens, UniProt P08246); test: Serine protease inhibition: neutrophil elastase; assay type: biochemical, mammalian; settings: Table 8B; read-out: IC50 Neutrophil elastase
T1 construct: purchased Calbiochem 324681
T1 sequence (P08246 30-267): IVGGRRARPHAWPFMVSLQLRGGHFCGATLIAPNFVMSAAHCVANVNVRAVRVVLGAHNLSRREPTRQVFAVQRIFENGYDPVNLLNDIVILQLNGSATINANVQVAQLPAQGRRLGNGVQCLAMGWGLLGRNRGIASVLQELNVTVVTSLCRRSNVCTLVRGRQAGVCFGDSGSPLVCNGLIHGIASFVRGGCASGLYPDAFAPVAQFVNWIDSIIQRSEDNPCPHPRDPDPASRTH
Description: (§4) The effect of selected BLIs on the enzymatic activity of some common mammalian serine proteases was evaluated.
(§5) 50 μl of the diluted enzyme was mixed with 50 μl of inhibitor at various concentrations and 50 μl of corresponding buffer (Table 7). Reaction mixtures were incubated for 10 min at 37° C. Subsequently, 50 μl of corresponding substrate (Table 7) was added and absorbance or fluorescence was monitored for 30 min on SpectraMax M2 plate reader (Molecular Devices). 4-(2-Aminoethyl)benzenesulfonyl fluoride hydrochloride (AEBSF) and leupeptin were used as positive controls. Rates of reaction were calculated and presented relative to “no treatment” control.

Chymotrypsin = target: T2, Chymotrypsin (Bos taurus, UniProt P00766); test: Serine protease inhibition: chymotrypsin; assay type: biochemical, mammalian; settings: Table 8A, class symbols; read-out: IC50 Chymotrypsin
T2 construct: purchased Calbiochem 230832
Description: as §4, §5

HtrA2 = target: T3, HtrA2 (Homo sapiens, UniProt O43464); test: Serine protease inhibition: HtrA2; assay type: biochemical, mammalian; settings: Table 8B; read-out: IC50 HtrA2
T3 sequence (O43464 134-458): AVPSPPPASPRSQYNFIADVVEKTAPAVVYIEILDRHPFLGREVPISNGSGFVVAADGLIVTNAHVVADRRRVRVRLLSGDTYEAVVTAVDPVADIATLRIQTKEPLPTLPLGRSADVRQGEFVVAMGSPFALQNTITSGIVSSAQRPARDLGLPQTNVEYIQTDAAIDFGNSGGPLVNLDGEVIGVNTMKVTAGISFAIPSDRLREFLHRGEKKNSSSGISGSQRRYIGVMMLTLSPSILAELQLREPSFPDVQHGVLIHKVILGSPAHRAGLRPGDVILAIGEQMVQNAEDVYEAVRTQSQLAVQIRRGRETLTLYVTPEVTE
Description: as §4, §5

EC1010 (CMY-6) [2] = assay type: cell-based
Urokinase = target: T4, Urokinase (Homo sapiens, UniProt P00749); test: Serine protease inhibition: urokinase; assay type: biochemical, mammalian; settings: Table 8A, class symbols; read-out: IC50 Urokinase
T4 construct: purchased Calbiochem 672112
Description: as §4, §5

PAM1154/KPC-2 = test: Biapenem potentiation in PAM1154/KPC-2 (MexAB-OprM lacking); assay type: cell-based, Pseudomonas aeruginosa
Description: as §3

CTX-M-14 = CTX-M-14 (Escherichia coli, UniProt Q9L5C7); test: Inhibition of nitrocefin cleavage by purified CTX-M-14; assay type: biochemical; settings: nitrocefin reporter substrate, purified enzyme; read-out: Ki (CTX-M-14, NCF)
Sequence of CTX-M-14 (Q9L5C7 entry or part of it): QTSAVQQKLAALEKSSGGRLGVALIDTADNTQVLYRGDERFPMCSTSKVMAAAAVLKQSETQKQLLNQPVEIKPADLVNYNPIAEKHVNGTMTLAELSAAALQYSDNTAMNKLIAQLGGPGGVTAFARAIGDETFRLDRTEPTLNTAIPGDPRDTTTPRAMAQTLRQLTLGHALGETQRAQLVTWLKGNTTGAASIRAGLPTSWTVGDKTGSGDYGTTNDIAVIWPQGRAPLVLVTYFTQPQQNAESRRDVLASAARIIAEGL
Procedure, shortened: as §1

ec302 (TEM-10) [3] = test: Potentiation of tigemonam, strain ec302; assay type: cell-based
EC1010 (CMY-6) [4] = test: Potentiation of aztreonam, strain EC1010; assay type: cell-based
CMY-2 = CMY-2 (Klebsiella pneumoniae, UniProt Q48434); test: Inhibition of nitrocefin cleavage by purified CMY-2; assay type: biochemical; settings: nitrocefin reporter substrate, purified enzyme; read-out: Ki (CMY-2, NCF)
Sequence of CMY-2 (Q48434 21-381, species assumed): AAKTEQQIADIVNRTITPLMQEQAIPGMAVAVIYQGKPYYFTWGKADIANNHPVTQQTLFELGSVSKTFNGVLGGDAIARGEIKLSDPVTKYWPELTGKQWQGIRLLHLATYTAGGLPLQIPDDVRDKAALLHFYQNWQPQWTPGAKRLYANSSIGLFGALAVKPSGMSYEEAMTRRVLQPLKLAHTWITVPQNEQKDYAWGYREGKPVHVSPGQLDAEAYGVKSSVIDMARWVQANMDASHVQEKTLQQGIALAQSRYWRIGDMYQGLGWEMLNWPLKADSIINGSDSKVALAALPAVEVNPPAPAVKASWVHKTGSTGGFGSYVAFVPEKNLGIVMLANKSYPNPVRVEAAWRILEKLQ
Description: as §2

Sequence of OXA-48 (Q6XEC0 23-265 limits assumed): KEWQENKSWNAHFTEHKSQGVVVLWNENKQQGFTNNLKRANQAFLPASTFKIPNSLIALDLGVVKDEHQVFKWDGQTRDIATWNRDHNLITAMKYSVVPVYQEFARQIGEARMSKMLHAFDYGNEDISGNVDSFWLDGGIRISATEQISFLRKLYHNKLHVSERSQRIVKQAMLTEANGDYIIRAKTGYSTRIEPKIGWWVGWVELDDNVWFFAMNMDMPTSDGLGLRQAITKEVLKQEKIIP

Compound	AZT MPC4 TEM-10 ec302 (ec302 (TEM-10) [1])	Ki (OXA-48) [µM]	Ki (P99) [µM]	Ki (KPC-2) [µM]	AZT MPC4 CTX-M-14 KP1005 (KP1005 (CTX-M-14))	PAM1032/KPC-2 Biapenem MPC64 (PAM1032/KPC-2)	AZT MPC4 CTX-M-15 KP1009 (KP1009 (CTX-M-15))	IC50 (Neutrophil elastase) [µM]	IC50 (Chymotrypsin) [µM]	IC50 (HtrA2) [µM]	TIG MPC4 CMY-6 EC1010 (EC1010 (CMY-6) [2])	IC50 (Urokinase) [µM]	PAM1154/KPC-2 Biapenem MPC64 (PAM1154/KPC-2)	Ki (CTX-M-14) [µM]	TIG MPC4 TEM-10 ec302 (ec302 (TEM-10) [3])	AZT MPC4 CMY-6 EC1010 (EC1010 (CMY-6) [4])	Ki (CMY-2) [µM]
O=C(CSC(F)F)N[C@H]1Cc2cccc(C(=O)O)c2OB1O [Compound 3, (R)-3-(2-(difluoromethylthio)acetamido)-2-hydroxy-3,4-dihydro-2H-benzo[e][1,2]oxaborinine-8-carboxylic acid]	Y (key: X = MIC of less than 1 μg/mL; Y = MIC of 1 μg/mL to 10 μg/mL; Z = MIC of greater than 10 μg/mL)	< 0.001	< 0.001	> 0.01	X (key: X = MIC of less than 1 μg/mL; Y = MIC of 1 μg/mL to 10 μg/mL; Z = MIC of greater than 10 μg/mL)	Z (Z Greater than 40)	Y (key: X = MIC of less than 1 μg/mL; Y = MIC of 1 μg/mL to 10 μg/mL; Z = MIC of greater than 10 μg/mL)	15 to 500	> 800	> 500	X (key: X = MIC of less than 1 μg/mL; Y = MIC of 1 μg/mL to 10 μg/mL; Z = MIC of greater than 10 μg/mL)	> 800	X (key: X = Less than 10; Y = 10 to 40; Z Greater than 40)	–	–	–	–
O=C(CSc1nncs1)N[C@H]1Cc2cccc(C(=O)O)c2OB1O [Compound 7, (R)-3-(2-(1,3,4-thiadiazol-2-ylthio)acetamido)-2-hydroxy-3,4-dihydro-2H-benzo[e][1,2]oxaborinine-8-carboxylic acid]	Y (key: X = MIC of less than 1 μg/mL; Y = MIC of 1 μg/mL to 10 μg/mL; Z = MIC of greater than 10 μg/mL)	–	< 0.001	> 0.01	X (key: X = MIC of less than 1 μg/mL; Y = MIC of 1 μg/mL to 10 μg/mL; Z = MIC of greater than 10 μg/mL)	Z (Z Greater than 40)	X (key: X = MIC of less than 1 μg/mL; Y = MIC of 1 μg/mL to 10 μg/mL; Z = MIC of greater than 10 μg/mL)	> 500	> 800	–	X (key: X = MIC of less than 1 μg/mL; Y = MIC of 1 μg/mL to 10 μg/mL; Z = MIC of greater than 10 μg/mL)	> 800	X (key: X = Less than 10; Y = 10 to 40; Z Greater than 40)	< 0.001	Y (key: X = MIC of less than 1 μg/mL; Y = MIC of 1 μg/mL to 10 μg/mL; Z = MIC of greater than 10 μg/mL)	X (key: X = MIC of less than 1 μg/mL; Y = MIC of 1 μg/mL to 10 μg/mL; Z = MIC of greater than 10 μg/mL)	< 0.001
CSC(=O)N[C@H]1Cc2cccc(C(=O)O)c2OB1O [Compound 11, (R)-2-hydroxy-3-(methylthiocarbonylamino)-3,4-dihydro-2H-benzo[e][1,2]oxaborinine-8-carboxylic acid]	Y (key: X = MIC of less than 1 μg/mL; Y = MIC of 1 μg/mL to 10 μg/mL; Z = MIC of greater than 10 μg/mL)	< 0.001	< 0.001	> 0.01	Y (key: X = MIC of less than 1 μg/mL; Y = MIC of 1 μg/mL to 10 μg/mL; Z = MIC of greater than 10 μg/mL)	Z (Z Greater than 40)	Y (key: X = MIC of less than 1 μg/mL; Y = MIC of 1 μg/mL to 10 μg/mL; Z = MIC of greater than 10 μg/mL)	> 500	> 800	–	X (key: X = MIC of less than 1 μg/mL; Y = MIC of 1 μg/mL to 10 μg/mL; Z = MIC of greater than 10 μg/mL)	> 800	X (key: X = Less than 10; Y = 10 to 40; Z Greater than 40)	–	Z (key: X = MIC of less than 1 μg/mL; Y = MIC of 1 μg/mL to 10 μg/mL; Z = MIC of greater than 10 μg/mL)	Y (key: X = MIC of less than 1 μg/mL; Y = MIC of 1 μg/mL to 10 μg/mL; Z = MIC of greater than 10 μg/mL)	< 0.001
